Measurements taken from patent US9321798B2, “Phosphoramidite derivatives of gemcitabine for use in the treatment of cancer” (NuCana BioMed Limited, priority 2010, dated 2016).

System: Human colon cancer cell line HRT18
Test: MTT cytotoxicity / cell proliferation assay in HRT18 colon tumour cell line
Type: cell-based
Details: HRT-18, HRT18 cells, 72 h incubation, 0.128-2000 nM, read-out: EC50 (nM) Colorectal cell HRT18
Text: The compounds can be assayed by many in vitro or in vivo methods, but in the first instance a cell proliferation assay is rapid and informative. Many tumour cell lines can be used for the assay, we herein report typical data for target compounds in HRT18 colon tumour cell line, using standard MTT assay methods, typical in many laboratories.
Human colon cancer cell line HRT18 were purchased from the European Collection of Animal Cell Cultures (ECACC, Salisbury, England). Cytoxicity assay was based on MTT assay as we previously reported. The method is based on the ability of viable mitochondria to convert MTT, a soluble tetrazolium salt (3-[4,5-dimethylthiazd-2-yl]-2,5-diphenyltetrazolium bromide) into an insoluble formazan precipitate that is dissolved and quantified by spectrophotometry. A 96-well culture cell culture plate was used. Cells were counted with a haemocytomete counting chamber and a specific number (4000 per well) of cells were seeded to each well with culture medium (DMEM). Compounds, dissolved in DMSO, were series diluted (1:5) in culture medium, to cover a final concentration range between 0.128 and 2000 nM. The culture plate was incubated for 72 h at 37° C. The cells were washed twice with BSS. A solution of MTT in 0.5 mg/mL in culture medium was added into each well. The culture plate was then incubated at 37° C. for 4 h. MTT was then removed by aspiration. The crystals produced by MTT reagent within the cells were then extracted by the addition of 100 µL of Triton X100 (10% in water). The cells were incubated at 4° C. for 24 h. The absorbance of the colorimetric products was then measured at a wavelength of 540 nm using a spectrophotometer (Titertecek).

CC(C)OC(=O)[C@H](C)NP(=O)(N[C@@H](C)C(=O)OC(C)C)OC[C@H]1O[C@@H](n2ccc(N)nc2=O)C(F)(F)C1O (stereo partly drawn) [CPF461]
EC50: 3.2 nM

Nc1ccn([C@@H]2O[C@H](CO)[C@@H](O)C2(F)F)c(=O)n1 [Gemcitabine, gemcitabine]
EC50: 64 nM

C[C@H](NP(=O)(N[C@@H](C)C(=O)OC1CCCCC1)OC[C@H]1O[C@@H](n2ccc(N)nc2=O)C(F)(F)C1O)C(=O)OC1CCCCC1 (stereo partly drawn) [CPF458]
EC50: 31 nM

CCOC(=O)[C@H](C)NP(=O)(N[C@@H](C)C(=O)OCC)OC[C@H]1O[C@@H](n2ccc(N)nc2=O)C(F)(F)C1O (stereo partly drawn) [CPF459, 2′-Deoxy-2′,2′-difluoro-D-cytidine-5′-O-bis(ethoxy-L-alaninyl)phosphate]
EC50: 42 nM

C[C@H](NP(=O)(N[C@@H](C)C(=O)OCc1ccccc1)OC[C@H]1O[C@@H](n2ccc(N)nc2=O)C(F)(F)C1O)C(=O)OCc1ccccc1 (stereo partly drawn) [CPF457, 2′-Deoxy-2′,2′-difluoro-D-cytidine-5′-O-bis(benzoxy-L-alaninyl)] phosphate]
EC50: 14 nM

C[C@H](NP(=O)(N[C@@H](C)C(=O)OCC(C)(C)C)OC[C@H]1O[C@@H](n2ccc(N)nc2=O)C(F)(F)C1O)C(=O)OCC(C)(C)C (stereo partly drawn) [CPF460]
EC50: 1.6 nM
